Results: ChEMBL document CHEMBL4814050, “Identification of gallic acid as a active ingredient of Syzygium aromaticum against tacrolimus-induced damage in renal epithelial LLC-PK1 cells and rat kidney” (Bioorg Med Chem Lett, 2021)
Activity calls are given as the source filed them. The calls are words filed in the database; no cut-off is given here.

What was measured:
LLC-PK1 = assay: Cytoprotective activity against pig LLC-PK1 cells assessed as reduction in FK506-induced cytotoxicity incubated for 2 hrs followed by FK506 stimulation and measured after 24 hrs by MTT assay; type: functional, cell-based; settings: Sus scrofa, dose 12.5-100 µM, time 26.0 hrs
[1] = Antioxidant activity assessed as reduction in FK506-induced ROS production by […] assay; type: functional; settings: dose 0.1-100 µM
Rattus norvegicus = species: Rattus norvegicus; assay: Nephroprotective activity in Sprague-Dawley rat assessed as reduction in FK506-induced kidney dysfunction by measuring decrease in serum creatinine level measured after 14 days; type: functional, organism-based; settings: time 14.0 day

Compound	Activity (LLC-PK1)	Activity [1]	Activity (Rattus norvegicus)
O=C(O)c1cc(O)c(O)c(O)c1	Dose-Dependent Effect	Dose-Dependent Effect	Active
O=C1O[C@H]([C@@H](O)CO)C(O)=C1O	–	Active	–
O=C(O[C@@H]1Cc2c(O)cc(O)cc2O[C@@H]1c1cc(O)c(O)c(O)c1)c1cc(O)c(O)c(O)c1	Dose-Dependent Effect	Dose-Dependent Effect	–
